Experimental data: the METLIN SMRT retention time set (Domingo-Almenara et al. 2019)

Experiment: gradient 5% acetonitrile 3 min, to 50% in 2 min, to 85% in 15 min, held 3 min, 100 µL/min
Settings: column: Zorbax Extend-C18 2.1 x 50 mm; eluents: water / acetonitrile, 0.1% formic acid
How it was run: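 Retention times of pure standards were taken from adduct peaks that were selected by computer and manually inspected. Over 3 months, mixtures of ~100 molecules were run by HPLC–quadrupole time-of-flight mass spectrometry in positive and negative ionization mode. The Zorbax Extend-C18 column (2.1 × 50 mm, 1.8 μm) ran at 100 μL/min in water and acetonitrile, each containing 0.1% formic acid, with 40 μL dead volume and 900 μL dwell volume.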

SMILES | RP-LC retention time [s]
O=C(NCc1ccc(F)cc1)c1ccc2c(c1)nc1n2CCN(Cc2ccccc2)C1=O | 775
CC(=O)c1cccc(NC(=O)N2CCN(Cc3ccccc3)c3ncccc32)c1 | 732
CCn1c(CCNC(=O)c2cc(F)ccc2F)nc2cccnc21 | 641
COc1ccc(-n2c(N)cc(=O)nc2SCC(=O)Nc2cc(C)on2)cc1 | 588
O=C(NCCNC(=O)c1ccc2c(c1)OCO2)c1ccc(NC(=O)C2CC2)cc1 | 650
O=C(NCc1ccccc1)c1nc(-c2ccncc2)cs1 | 575
COc1ccc(CNC(=O)C2CCN(C(=O)c3nn(C)c4c3CN(C(=O)C(C)C)CC4)CC2)cc1 | 662
Cc1nc(-c2ccc(N3CCN(C(=O)c4cccc(C#N)c4)CC3)nc2)sc1C | 825
COc1cccc(-c2noc(Cn3ccn(Cc4ccc(Cl)cc4)c(=O)c3=O)n2)c1 | 895
Cc1cc(C)c(C)c(S(=O)(=O)Nc2ccc(C(=O)NCc3ccccn3)cc2)c1C | 630
Cc1cc(NC(=O)c2cn(-c3ccc(C#N)cc3)cn2)ccc1Br | 1020
O=C(Nc1nccs1)C1CCN(C(=O)Cn2ccc3ccccc32)CC1 | 719
COc1c(/C=N/NC(N)=O)c(OC)c(OC)c2c1CCO2 | 1080
CCCC1c2nccn2CCCN1C(=O)c1cccn1C (stereo not drawn) | 599
Cc1ccc(F)cc1S(=O)(=O)N1CCCC(C)(C(=O)NCc2cccc(F)c2)C1 (stereo not drawn) | 1020
O=C(Cn1ccn2nc(-c3ccccc3)c(CO)c2c1=O)Nc1ccccc1Cl | 808
Cc1ccn2c(NC(=O)c3ccc(Cl)c([N+](=O)[O-])c3)c(-c3ccc(F)cc3)nc2c1 | 757
CCn1nccc1-c1cccc(-c2noc(CNS(=O)(=O)c3ccccc3)n2)c1 | 884
CCC(=O)N1CCc2cc(CNS(=O)(=O)c3ccc(OC)c(OC)c3)ccc21 | 747
CCN1CCc2nc(NC(=O)C3CCN(S(=O)(=O)c4cccs4)CC3)sc2C1 | 634
O=C(Nc1ccc(-c2cn3cccnc3n2)cc1)C1CCCC1 | 648
O=C(c1ccsc1)N1CCC(Cc2nnc(-c3ccccc3)o2)CC1 | 774

SMILES | RP-LC retention time [s]
COCCNC(=O)CCc1cc2cc(C)ccc2[nH]c1=O | 637
CC(=O)c1cccc(NC(=O)c2cc(-c3cccnc3)nc3ccccc23)c1 | 739
O=C(Nc1ccccc1)C1CCN(C(=O)c2ncn3c2COC(c2ccccc2)C3)CC1 (stereo not drawn) | 752
Cc1ccc(CS(=O)(=O)N[C@@H]2CN(c3ncccn3)C[C@H]2CN(C)C)cc1 | 619
CC1=C(c2ccc(C(C)C)cc2)S(=O)(=O)N=C1N1CCC(NC(=O)CCC(C)C)CC1 | 1020
Cc1cccc(-c2noc(-c3sccc3NC(=O)c3ccc4nc[nH]c4c3)n2)c1 | 957
CCOCCCNC(=O)c1nnc(-c2ccc(S(=O)(=O)N3CCOCC3)cc2)o1 | 727
CCCS(=O)(=O)N1CC(=O)N(c2ccc(F)cc2C)C(C)(C(=O)NC2CCCCCC2)C1 (stereo not drawn) | 988
COc1c(C(=O)N2CCN(c3ccccc3)CC2)sc2cccc(F)c12 | 1090
CN1C(=O)Cc2cc(S(=O)(=O)NCc3ccc4c(c3)CCN4C(=O)c3ccc(Cl)cc3)ccc21 | 867
Cc1ccc(NC(=O)CN2CCc3c(c(=O)c4cc(C)ccc4n3C)C2)cc1 | 649
CN(C)S(=O)(=O)c1ccc2c(c1)N(CC(=O)NCCN1CCCC1)C(=O)C1CCCCN21 (stereo not drawn) | 627
CCN(CC)c1ccc(NC(=O)C2CCCN(c3nc4ccccc4nc3C(F)(F)F)C2)c(C)c1 (stereo not drawn) | 825
CCNC(=O)c1csc(N2CCCC2)n1 | 723
CCOc1ccc(C(=O)N2C[C@@H]3C[C@H](NC(=O)c4cccs4)[C@H]2C3)cc1 | 783
CC(=O)NCc1nc(-c2cccc(-c3csc(C)n3)c2)no1 | 704
Brc1ccc(-c2nc(NCCC3=CCCCC3)c3ccccc3n2)cc1 | 1010
CCc1nc(-c2ccc(-c3noc(-c4ccncc4)n3)cc2)cs1 | 1230
COc1cc(Cl)c(NS(=O)(=O)c2c(C)sc(C)c2-c2cc(C(F)(F)F)on2)c(OC)c1 | 1190
CCOC(=O)C(=O)NCC1CCC(c2nc3ccccc3n2C)CC1 (stereo not drawn) | 552
CC1CC(=O)c2cnc(N3CCN(C)CC3)nc2C1 (stereo not drawn) | 564
CNS(=O)(=O)c1ccc(Cl)c(-c2nnc(-c3ccc(OC)cc3)o2)c1 | 883

SMILES | RP-LC retention time [s]
COc1ccc(C(=O)N2CCC3(C2)C(=O)Nc2ccc(OC)cc23)cc1 (stereo not drawn) | 683
Cc1nn2c(CNS(=O)(=O)c3ccc(C(C)C)cc3)c(-c3ccccc3)nc2s1 | 1010
COc1ccccc1NC(=O)C1CCCN(c2ncnc3c2nc2n3CCCCC2)C1 (stereo not drawn) | 805
O=C(Nc1ccc2c(c1)CCN2S(=O)(=O)c1ccccc1)Nc1cc(F)ccc1F | 1070
O=C(NCCC1=CCCCC1)C1CCN(Cc2cc3ccccc3n2Cc2ccccc2)CC1 | 880
O=C1c2cccc(OCC(=O)N3CCCc4ccccc43)c2CCN1Cc1cccnc1 | 594
CCc1nc(OCC(=O)NCc2ccccc2)c2ccccc2n1 | 756
CN(C)CCn1nnc2cc(-c3noc(Cc4cccc(F)c4)n3)ccc21 | 668
O=c1[nH]c2ccccc2c2ccccc12 | 806
COc1ccc(C(CNC(=O)c2cc(=O)c3ccccc3o2)N(C)C)cc1 (stereo not drawn) | 607
CCC(C)NC(=O)c1cn(-c2ncccc2-c2nc(-c3ccccc3)no2)cn1 (stereo not drawn) | 858
CC1CCC(NC(=O)C2CCCN(C(=O)c3cc(-c4cccnc4)n[nH]3)C2)CC1 (stereo not drawn) | 636
CCc1cc(=O)n(CC(=O)Nc2ccc3c(c2)OCCO3)c(-c2cccc(F)c2)n1 | 1090
COCCNC(=O)c1cn2cccc(C)c2n1 | 561
O=C(NCc1ccc2c(c1)OCO2)c1nnc(-c2ccc(S(=O)(=O)N3CCCC3)cc2)o1 | 854
COc1ccc2c3c([nH]c2c1)[C@H](CC(C)C)N1C(=O)[C@H](CCC(=O)OC(C)(C)C)NC(=O)[C@@H]1C3 | 1100
O=C(CCc1nnc2ccc(N3CCC4(CC3)OCCO4)nn12)N1CCN(c2ccccn2)CC1 | 581
O=C(NCCN1CCCCC1)c1cc2n(n1)CCCN(Cc1ccc(Cl)cc1)C2=O | 642
N#Cc1ccccc1CN1CC[C@@H]2CN(Cc3cccnc3)[C@@H]2C1 | 556
COc1ccccc1CNC(=O)Cn1cccc1-c1nnc(-c2ccccc2)o1 | 920
O=C(NCCc1c[nH]c2ccccc12)c1cc(S(=O)(=O)N2CCSCC2)ccc1Cl | 925
CCC(C)(C)NC(=O)Cn1nc(C)c2nn(-c3ccccc3)c(C)c2c1=O | 860

SMILES | RP-LC retention time [s]
Cc1cc(C)cc(NS(=O)(=O)c2c[nH]c3ncccc23)c1 | 758
O=C(CC1CCN(C(=O)NCc2ccccc2)CC1)NCc1ccc(F)cc1 | 737
Cc1noc(-c2ccnc(-n3cnc(C(=O)NCc4ccccc4)c3)c2)n1 | 806
CCS(=O)(=O)c1nc2ccc(NS(=O)(=O)c3ccc(C4CCCCC4)cc3)cc2s1 | 1120
O=C1/C(=C\c2ccc(O)c(O)c2)Oc2cc(O)ccc21 | 710
CCOC(=O)c1ccc(NC(=O)NCc2noc3ccc(C)cc23)cc1 | 944
Cc1ccc2c(Nc3cccc(Cl)c3)c(-c3nc(C)no3)cnc2n1 | 808
Cc1oc(-c2[nH]ncc2C(=O)N2CCCC2)cc1S(=O)(=O)NCc1cccnc1 | 574
COC[C@@H]1CN(Cc2cccc(C#N)c2)C[C@H]1c1ccccn1 | 608
O=C(NC1CCN(c2cc(-c3ccccc3)[nH]n2)C1)c1ccsc1 (stereo not drawn) | 660
Cc1ccc(-c2noc(CN3C(=O)C(C)Oc4ccccc43)n2)cc1 (stereo not drawn) | 1120
Cc1ccc(C(=O)Nc2nnc(SCc3nnc(-c4ccccc4C)o3)s2)cc1 | 1040
COc1ccc(C(=O)NCc2nc3ccccc3[nH]2)cc1 | 555
O=C(Cn1cnc2c(sc3nc(-c4ccccc4)ccc32)c1=O)Nc1cccc(Cl)c1 | 1080
O=S(=O)(c1ccc(Br)cc1)N1CCCC(COCc2ccccc2)C1 (stereo not drawn) | 1220
CC(C)N1C(=O)C(C)(C(=O)Nc2cccc(F)c2)Oc2cccnc21 (stereo not drawn) | 1020
COCCc1noc(C2Cc3ccccc3N2C(=O)NCc2ccc(C)cc2)n1 (stereo not drawn) | 973
O=C(Cc1cccs1)NCCS(=O)(=O)N1CCN(c2ncccn2)CC1 | 653
Cc1ccc(N2CC(c3nc(-c4ccc5c(c4)ncn5CCC(=O)N4CCCC4)no3)CC2=O)cc1 (stereo not drawn) | 676
COCCn1cc(C(=O)NCC(C)C)c2nn(-c3ccccc3)c(=O)c-2c1 | 851
Cc1ccc(OCC(=O)NCC2CCN(Cc3ccncc3)CC2)cc1 | 543
Cc1ccc(S(=O)(=O)N2C(=O)CCC2C(=O)N(C)C2CCCCC2)cc1 (stereo not drawn) | 916
